Test results reported in US10207988B2, “Methods and compositions for treatment of cancer and autoimmune disease” (THE JACKSON LABORATORY, priority 2011, dated 2019).

Columns and labels:
[1] = tested on: primary wild-type mouse splenocytes; assay: radiosensitivity of primary splenocytes after exposure to DIDS (cell counts after 2.5 Gy); assay type: cell-based; conditions: Splenocyte, light or radiation study, 36 h, read-out: reduction in viability
Experimental: To validate DIDS as a potential agent, and to confirm its DSB repair inhibitory activity, radiosensitivity of primary wild-type mouse splenocytes was measured after exposure to DIDS. A total of 2×10^6 splenocytes were suspended in medium with 0, 300 μM, 600 μM or 1000 μM DIDS, or in vehicle-only control, and immediately given 2.5 Gy ionizing irradiation using a ^137Cs irradiator (Shepard). Cells were then cultured in medium containing the same DIDS concentration, and cell counts were determined after 36 hours recovery time.

[2] = tested on: primary chronic lymphocytic leukemia (CLL) cells; assay: viable cell counts of primary human CLL cells treated with DIDS; assay type: cell-based; conditions: 150 μM or 600 μM DIDS, days 2, 4, 6, 8, relative to untreated control
Experimental: Blood samples (8-16 mL) from patients were collected via peripheral bleed into BD Vacutainer CPT tubes (BD, Franklin Lakes, N.J.), centrifuged to sequester red blood cells below the separation gel according to manufacturer instructions, and transported within 24 hours to the Jackson Laboratory. Upon receipt, peripheral blood mononuclear cells (PBMC) were isolated from samples according to manufacturer specifications. White blood cell (WBC) counts from 14 primary chronic lymphocytic leukemia (CLL) samples from human patients were calculated from complete blood count (CBC) with differentials. Calculated values were compared with empirical cell counts following cell separation and overnight shipping. […] The primary CLL samples (WBC) were diluted to standard concentration and 3.0×10^6 cells were seeded in cultures. Replicate cultures were supplemented with 0 μM (n=5), 150 μM DIDS (n=4), or 600 μM DIDS (n=2). Viable cell counts were determined by manual counting using a hemacytometer on days 2, 4, 6, and 8 of culture.

[3] = tested on: primary mouse splenic B-cells (B220+ IgM+); assay: radiosensitization of primary mouse B-cells by DIDS (Trypan blue dye exclusion); assay type: cell-based; conditions: 2.5 Gy gamma irradiation combined with DIDS, starting at 50 micromolar, 24 hours after irradiation
Experimental: Primary mouse splenic B-cells were isolated from normal, wild-type C57BL/6J mice as described in Example 1 and sorted with magnetic beads (Miltenyi) to enrich B220+ IgM+ B-cells. Purified B-cells were cultured in complete RPMI-1640 medium with 10% FBS with 0, 50, 100, or 150 micromolar DIDS. Cells were then subjected to either 0 (FIG. 14, filled circles) or 2.5 Gy (=250 rads; FIG. 14, open circles) of gamma irradiation in a Cs137 irradiator. Cell viability was subsequently scored for each condition and plotted relative to the no DIDS condition by manual cytometry using a hemacytometer and Trypan blue dye exclusion 24 hours after irradiation. The fraction of viable cells is reported normalized to the corresponding 0 μM DIDS condition. Error bars represent the standard error of the mean (S.E.M) from three independent experiments.

[4] = tested on: BXSB.Yaa Cd8/IL15−/− mice; assay: mouse systemic lupus erythematosus (SLE) model treated with DIDS; assay type: in vivo
Source text: BXSB.Yaa Cd8/IL15−/− mice are an established model for SLE. These mice display many characteristics of human SLE including hypergammaglobulinemia, circulating antinuclear antibodies and immune complex medicated glomerulonephritis, and ultimately succumb to disease around 24 weeks of age (Andrews et al. 1978, J Exp Med 148: 1198-215; Dixon et al. 1978, Arthritis Rheum 21: S64-7; Izui et al. 2000, Int Rev Immunol 19: 447-72). Genetic deletion of Cd8a and IL15 from the model results in a similar clinical phenotype which appears much early with survival averaging 14 weeks of age (McPhee et al. 2011, J Immunol 187:4695-4704)
Six week old male BXSB.Cg-Cd8a<tm1Mak> IL15<tm1Imx>/Dcr (abbreviated as BXSB.Yaa Cd8/IL15−/−) mice were retro-orbitally bled into heparin primed tubes to collect serum. 25 mg/kg (n=5) or 50 mg/kg DIDS (n=6) in 4% potassium bicarbonate with PBS or an equivalent volume of 4% potassium bicarbonate (n=2 and n=4) was administered intraperitoneally on day 0, and every seven days for five weeks. Mice were weighed weekly and serum was collected at 14 day intervals for a 5-week period. These mice were then aged for survival. The serum was analyzed by ELISA for IgG1 and IgG2b content. For the ELISA plates were coated with goat anti-mouse Ig (IgG1 or IgG2b) and incubated overnight at […] Plates were washed three times and P-nitrophenyl Phosphate (p-NPP, AMRESCO) was applied, incubated until standards developed adequately and read on a SpectraMax ELISA plate reader using SoftmaxPro software. Data are expressed as concentration of IgG (mg/ml) based on titration of isotype-specific purified mouse standards. […] Survival data was analyzed using Graphpad Prism software and assessed for statistical significance using both the log-rank Mantel Cox with (FIG. 20A for the 25 mg/kg group with a p value of 0.4289 and FIG. 20B for the 50 mg/kg group with a p value of 0.3698) and Gehan-Breslow-Wilcoxan tests (FIG. 21A for the 25 mg/kg group with a p value of 0.7003 and FIG. 21B for the 50 mg/kg group with a p value of 0.7505).

[5] = molecular target: T1, Rad51 (Homo sapiens, UniProt Q06609); conditions: cited from earlier work
T1 sequence (Q06609 1-339): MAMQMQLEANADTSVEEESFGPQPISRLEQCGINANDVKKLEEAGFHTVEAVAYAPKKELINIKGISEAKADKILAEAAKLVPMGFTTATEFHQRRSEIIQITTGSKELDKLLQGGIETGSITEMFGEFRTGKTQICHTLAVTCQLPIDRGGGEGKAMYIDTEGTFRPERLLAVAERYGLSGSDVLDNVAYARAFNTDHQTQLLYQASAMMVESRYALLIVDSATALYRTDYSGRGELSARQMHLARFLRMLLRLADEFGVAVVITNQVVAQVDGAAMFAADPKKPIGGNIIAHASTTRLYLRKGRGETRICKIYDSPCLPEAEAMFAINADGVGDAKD

O=S(=O)([O-])c1cc(N=C=S)ccc1/C=C/c1ccc(N=C=S)cc1S(=O)(=O)[O-].[Na+].[Na+] [DIDS, 4,4′diisothiocyanostilbene-2,2′-disulfonic acid]
cytotoxicity at 600 µM [1]: ~25%
cytotoxicity at 1000 µM [1]: 87%
viable cell counts [2]: significant decline in viable cell counts
fraction of viable cells [3]: reduces viability significantly
IgG2b serum content (ELISA) ([4]; 25 mg/kg DIDS intraperitoneally every seven days): striking decrease
body weight ([4]; 25 mg/kg DIDS intraperitoneally every seven days for five weeks, versus controls): no weight difference
IgG1 serum content (ELISA) ([4]; DIDS intraperitoneally every seven days): No significant difference
effect on Rad51 complexes and heteroduplex formation [5]: disrupts Rad51 complexes and inhibits heteroduplex formation
